Assay results as given in patent US10639284B2, “Immunomodulator compounds” (CHEMOCENTRYX, INC., priority 2016, dated 2020).

What follows are molecules tested against human PD-L1 / Human PD-1 (Homo sapiens (Human), UniProt Q9NZQ7) (assay: Enzyme-Linked Immunosorbent Assay (ELISA), PD-1/PD-L1 binding). Conditions: Table 2; plate-coated human PD-L1, biotinylated human PD-1; read-out: ELISA IC50.
Chain of human PD-L1 / Human PD-1 (Q9NZQ7 19-239): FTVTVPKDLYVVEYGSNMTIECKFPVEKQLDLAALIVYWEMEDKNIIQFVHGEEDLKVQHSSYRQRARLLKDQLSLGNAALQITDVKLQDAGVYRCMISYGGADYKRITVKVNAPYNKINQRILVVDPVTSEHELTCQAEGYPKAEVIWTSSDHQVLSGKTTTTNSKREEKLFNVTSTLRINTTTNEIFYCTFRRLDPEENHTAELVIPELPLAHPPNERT
Experimental: Plates were coated with 1 μg/mL of human PD-L1 (obtained from R&D) in PBS overnight at 4° C. The wells were then blocked with PBS containing 2% BSA in PBS (W/V) with 0.05% TWEEN-20 for 1 hour at 37° C. The plates were washed 3 times with PBS/0.05% TWEEN-20 and the samples were diluted to 1:5 in dilution medium in the ELISA plates. Human PD-1 and biotin 0.3 μg/mL (ACRO Biosystems) were added and incubated for 1 hour at 37° C. then washed 3 times with PBS/0.05% TWEEN-20. A second block was added with PBS containing 2% BSA in PBS (W/V)/0.05% TWEEN-20 for 10 min at 37° C. and was washed 3 times with PBS/0.05% TWEEN-20. Streptavidin-HRP was added for 1 hour at 37° C. then washed 3 times with PBS/0.05% TWEEN-20. TMB substrate was added and reacted for 20 min at 37° C. A stop solution (2 N aqueous H2SO4) was added. The absorbance was read at 450 nm using a micro-plate spectrophotometer.
Compounds in Table 2 and Table 3 were prepared by methods as described in the Examples, and evaluated according to the assay below.
With `N#Cc1cncc(COc2cc(OC3CCc4c(-c5ccccc5)cccc43)c(Cl)cc2CN[C@@H](CO)C(=O)O)c1` (some centres unmarked) [Example 1.001] the IC50 was less than 100 nM.
`N#Cc1cncc(COc2cc(OC3CCc4c(-c5ccccc5)cccc43)c(Cl)cc2CNC[C@@H](O)CC(=O)O)c1` (some centres unmarked) [Example 1.002] gave an IC50 of 100 to 500 nM.
Molecule `N#Cc1cncc(COc2cc(OC3CCc4c(-c5ccccc5)cccc43)c(Cl)cc2CNCc2nnn[nH]2)c1` (centres unmarked) [Example 1.003] has an IC50 of less than 100 nM.
In the case of `N#Cc1cncc(COc2cc(OC3CCc4c(-c5ccccc5)cccc43)c(Cl)cc2CNCCO)c1` (centres unmarked) [Example 1.004], the IC50 is reported as less than 100 nM.
`N#Cc1cncc(COc2cc(OC3CCc4c(-c5ccccc5)cccc43)c(Cl)cc2CN2CCCC[C@H]2C(=O)O)c1` (some centres unmarked) [Example 1.005] was tested, and the IC50 was less than 100 nM.
Work on `N#Cc1cncc(COc2cc(OC3CCc4c(-c5ccccc5)cccc43)c(Cl)cc2CN2CCC2)c1` (centres unmarked) [Example 1.006] yielded an IC50 of 100 to 500 nM.
`N#Cc1cncc(COc2cc(OC3CCc4c(-c5ccccc5)cccc43)c(Cl)cc2CN2CC(O)C2)c1` (centres unmarked) [Example 1.007] gave an IC50 of 100 to 500 nM.
Molecule `N#Cc1cncc(COc2cc(O[C@@H]3CCc4c(-c5ccccc5)cccc43)c(Cl)cc2CNC[C@@H](O)CC(=O)O)c1` [Example 1.008] has an IC50 of less than 100 nM.
Work on `N#Cc1cncc(COc2cc(O[C@H]3CCc4c(-c5ccccc5)cccc43)c(Cl)cc2CNC[C@@H](O)CC(=O)O)c1` [Example 1.009] yielded an IC50 of less than 100 nM.
Work on `N#Cc1cncc(COc2cc(O[C@H]3CCc4c(-c5ccccc5)cccc43)c(Cl)cc2CNCCn2nn[nH]c2=O)c1` [Example 1.010] yielded an IC50 of 100 to 500 nM.
`O=C(O)[C@H](CO)NCc1cc(Cl)c(OC2CCc3c(-c4ccccc4)cccc32)cc1OCc1cccnc1` (some centres unmarked) [Example 1.011] gave an IC50 of 500 to 20000 nM.
`CC(C)(O)CNCc1cc(Cl)c(O[C@H]2CCc3c(-c4ccccc4)cccc32)cc1OCc1cncc(C#N)c1` [Example 1.012] gave an IC50 of 500 to 20000 nM.
Molecule `CC(C)(CNCc1cc(Cl)c(O[C@H]2CCc3c(-c4ccccc4)cccc32)cc1OCc1cncc(C#N)c1)C(=O)O` [Example 1.013] has an IC50 of 500 to 20000 nM.
With `N#Cc1cncc(COc2cc(O[C@H]3CCc4c(-c5ccccc5)cccc43)c(Cl)cc2CNCC2CCC(=O)N2)c1` (some centres unmarked) [Example 1.014] the IC50 was 100 to 500 nM.
Molecule `N#Cc1cncc(COc2cc(O[C@H]3CCc4c(-c5ccccc5)cccc43)c(Cl)cc2CNCc2ccn[nH]2)c1` [Example 1.015] has an IC50 of 500 to 20000 nM.
With `N#Cc1cncc(COc2cc(O[C@H]3CCc4c(-c5ccccc5)cccc43)c(Cl)cc2CN2CC(O)C2)c1` [Example 2.001] the IC50 was 100 to 500 nM.
Work on `N#Cc1cncc(COc2cc(O[C@H]3CCc4c(-c5ccccc5)cccc43)c(Cl)cc2CN[C@@H](CO)C(=O)O)c1` [Example 2.002] yielded an IC50 of less than 100 nM.
In the case of `N#Cc1cncc(COc2cc(O[C@H]3CCc4c(-c5ccccc5)cccc43)c(Cl)cc2CN2CC(C(=O)O)C2)c1` [Example 2.003], the IC50 is reported as less than 100 nM.
`N#Cc1cncc(COc2cc(O[C@H]3CCc4c(-c5ccccc5F)cccc43)c(Cl)cc2CN[C@@H](CO)C(=O)O)c1` [Example 2.004] gave an IC50 of less than 100 nM.
Work on `N#Cc1cncc(COc2cc(O[C@H]3CCc4c(-c5ccccc5Cl)cccc43)c(Cl)cc2CN[C@@H](CO)C(=O)O)c1` [Example 2.005] yielded an IC50 of less than 100 nM.
With `Cc1ccccc1-c1cccc2c1CC[C@@H]2Oc1cc(OCc2cncc(C#N)c2)c(CN[C@@H](CO)C(=O)O)cc1Cl` [Example 2.006] the IC50 was less than 100 nM.
Work on `COc1cc(O[C@H]2CCc3c(-c4ccccc4)cccc32)c(Cl)cc1CN[C@@H](CO)C(=O)O` [Example 2.007] yielded an IC50 of 100 to 500 nM.
With `N#Cc1cncc(COc2cc(O[C@H]3CCc4c(-c5ccc(F)cc5)cccc43)c(Cl)cc2CN[C@@H](CO)C(=O)O)c1` [Example 2.008] the IC50 was 100 to 500 nM.
In the case of `COc1ccccc1-c1cccc2c1CC[C@@H]2Oc1cc(OCc2cncc(C#N)c2)c(CN[C@@H](CO)C(=O)O)cc1Cl` [Example 2.009], the IC50 is reported as 500 to 20000 nM.
`N#Cc1cncc(COc2cc(O[C@H]3CCc4c(-c5cccc(F)c5)cccc43)c(Cl)cc2CN[C@@H](CO)C(=O)O)c1` [Example 2.010] showed an IC50 of less than 100 nM.
`CC(C)Oc1cc(O[C@H]2CCc3c(-c4ccccc4)cccc32)c(Cl)cc1CN[C@@H](CO)C(=O)O` [Example 2.011] was tested, and the IC50 was 500 to 20000 nM.
In the case of `Cc1cccc(-c2cccc3c2CC[C@@H]3Oc2cc(OCc3cncc(C#N)c3)c(CN[C@@H](CO)C(=O)O)cc2Cl)c1` [Example 2.012], the IC50 is reported as 500 to 20000 nM.
Work on `COc1ccc(-c2cccc3c2CC[C@@H]3Oc2cc(OCc3cncc(C#N)c3)c(CN[C@@H](CO)C(=O)O)cc2Cl)cc1` [Example 2.014] yielded an IC50 of 100 to 500 nM.
Molecule `COc1cccc(-c2cccc3c2CC[C@@H]3Oc2cc(OCc3cncc(C#N)c3)c(CN[C@@H](CO)C(=O)O)cc2Cl)c1` [Example 2.015] has an IC50 of less than 100 nM.
`N#Cc1cncc(COc2cc(O[C@H]3CCc4c(-c5ccc(Cl)c(Cl)c5)cccc43)c(Cl)cc2CN[C@@H](CO)C(=O)O)c1` [Example 2.016] was tested, and the IC50 was 500 to 20000 nM.
`N#Cc1cncc(COc2cc(O[C@H]3CCc4c(-c5ccccc5F)cccc43)c(Cl)cc2CNC23CC(C2)C3)c1` [Example 2.017] gave an IC50 of 500 to 20000 nM.
`N#Cc1cncc(COc2cc(O[C@H]3CCc4c(-c5ccccc5F)cccc43)c(Cl)cc2CN2CC(O)(C(=O)O)C2)c1` [Example 2.018] was tested, and the IC50 was 100 to 500 nM.
Work on `N#Cc1cncc(COc2cc(O[C@H]3CCc4c(-c5ccccc5F)cccc43)c(Cl)cc2CN2CC[C@@H](O)C2)c1` [Example 2.019] yielded an IC50 of less than 100 nM.
Work on `N#Cc1cncc(COc2cc(O[C@H]3CCc4c(-c5ccccc5F)cccc43)c(Cl)cc2CN2CC[C@H](O)C2)c1` [Example 2.020] yielded an IC50 of 100 to 500 nM.
`COc1ccc(-c2cccc3c2CC[C@@H]3Oc2cc(OCc3cncc(C#N)c3)c(CN[C@@H](CO)C(=O)O)cc2Cl)cc1OC` [Example 2.021] showed an IC50 of 500 to 20000 nM.
Work on `N#Cc1cncc(COc2cc(O[C@H]3CCc4c(-c5ccccc5F)cccc43)c(Cl)cc2CN2CCC(O)(C(=O)O)C2)c1` (some centres unmarked) [Example 2.022] yielded an IC50 of less than 100 nM.
`COc1ccc(-c2cccc3c2CC[C@@H]3Oc2cc(OCc3cncc(C#N)c3)c(CN[C@@H](CO)C(=O)O)cc2Cl)cc1C` [Example 2.023] showed an IC50 of 100 to 500 nM.
`N#Cc1cncc(COc2cc(O[C@H]3CCc4c(-c5ccc6c(c5)OCCO6)cccc43)c(Cl)cc2CN[C@@H](CO)C(=O)O)c1` [Example 2.024] gave an IC50 of less than 100 nM.
For `N#Cc1cncc(COc2cc(O[C@H]3CCc4c(-c5ccccc5F)cccc43)c(Cl)cc2CNCc2cnn[nH]2)c1` [Example 2.025], the IC50 was 100 to 500 nM.
Molecule `Cc1cc(-c2cccc3c2CC[C@@H]3Oc2cc(OCc3cncc(C#N)c3)c(CN[C@@H](CO)C(=O)O)cc2Cl)ccc1N(C)C` [Example 2.026] has an IC50 of 500 to 20000 nM.
`CN(C)c1cccc(-c2cccc3c2CC[C@@H]3Oc2cc(OCc3cncc(C#N)c3)c(CN[C@@H](CO)C(=O)O)cc2Cl)c1` [Example 2.027] gave an IC50 of 500 to 20000 nM.
For `COc1cccc(-c2cccc3c2CC[C@@H]3Oc2cc(OCc3cncc(C#N)c3)c(CN[C@@H](CO)C(=O)O)cc2Cl)c1F` [Example 2.028], the IC50 was less than 100 nM.
With `N#Cc1cncc(COc2cc(O[C@H]3CCc4c(-c5ccccc5F)cccc43)c(Cl)cc2CN2CCC(O)CC2)c1` [Example 2.029] the IC50 was less than 100 nM.
`N#Cc1cncc(COc2cc(O[C@H]3CCc4c(-c5ccccc5F)cccc43)c(Cl)cc2CN2CCCC(O)C2)c1` (some centres unmarked) [Example 2.030] showed an IC50 of 100 to 500 nM.
`CN(C)Cc1cc(Cl)c(O[C@H]2CCc3c(-c4ccccc4F)cccc32)cc1OCc1cncc(C#N)c1` [Example 2.031] gave an IC50 of less than 100 nM.
For `N#Cc1cncc(COc2cc(O[C@H]3CCc4c(-c5ccccc5F)cccc43)c(Cl)cc2CN2CCC(C(=O)O)C2)c1` (some centres unmarked) [Example 2.032], the IC50 was less than 100 nM.
For `CC(C)c1cccc(-c2cccc3c2CC[C@@H]3Oc2cc(OCc3cncc(C#N)c3)c(CN[C@@H](CO)C(=O)O)cc2Cl)c1` [Example 2.033], the IC50 was 500 to 20000 nM.
With `CC(C)c1ccccc1-c1cccc2c1CC[C@@H]2Oc1cc(OCc2cncc(C#N)c2)c(CN[C@@H](CO)C(=O)O)cc1Cl` [Example 2.034] the IC50 was 100 to 500 nM.
In the case of `CCc1ccccc1-c1cccc2c1CC[C@@H]2Oc1cc(OCc2cncc(C#N)c2)c(CN[C@@H](CO)C(=O)O)cc1Cl` [Example 2.035], the IC50 is reported as 100 to 500 nM.
`CCOc1cc(O[C@H]2CCc3c(-c4ccccc4F)cccc32)c(Cl)cc1CN[C@@H](CO)C(=O)O` [Example 2.036] gave an IC50 of less than 100 nM.
With `N#Cc1cncc(COc2cc(O[C@H]3CCc4c(-c5ccccc5F)cccc43)c(Cl)cc2CN2CC(O)C2)c1` [Example 2.037] the IC50 was less than 100 nM.
In the case of `O=C(O)[C@H](CO)NCc1cc(Cl)c(O[C@H]2CCc3c(-c4ccccc4F)cccc32)cc1OCC1CC1` [Example 2.038], the IC50 is reported as 100 to 500 nM.
`COc1cc(O[C@H]2CCc3c(-c4ccc5c(c4)OCCO5)cccc32)c(Cl)cc1CN[C@@H](CO)C(=O)O` [Example 2.039] was tested, and the IC50 was less than 100 nM.
For `COc1cc(O[C@H]2CCc3c(-c4cccc(OC)c4F)cccc32)c(Cl)cc1CN[C@@H](CO)C(=O)O` [Example 2.040], the IC50 was less than 100 nM.
In the case of `COc1cc(O[C@H]2CCc3c(-c4cccc(OC)c4F)cccc32)c(Cl)cc1CN1CC(O)C1` [Example 2.041], the IC50 is reported as 500 to 20000 nM.
`COc1cc(O[C@H]2CCc3c(-c4ccc5c(c4)OCCO5)cccc32)c(Cl)cc1CN1CC(O)C1` [Example 2.042] showed an IC50 of 500 to 20000 nM.
With `COc1cccc(-c2cccc3c2CC[C@@H]3Oc2cc(OCc3cncc(C#N)c3)c(CN[C@@H](CO)C(=O)O)cc2Cl)c1Cl` [Example 2.043] the IC50 was less than 100 nM.
`COc1ccc(-c2cccc3c2CC[C@@H]3Oc2cc(OCc3cncc(C#N)c3)c(CN[C@@H](CO)C(=O)O)cc2Cl)c(F)c1` [Example 2.044] showed an IC50 of 100 to 500 nM.
Work on `COc1ccc(F)c(-c2cccc3c2CC[C@@H]3Oc2cc(OCc3cncc(C#N)c3)c(CN[C@@H](CO)C(=O)O)cc2Cl)c1` [Example 2.045] yielded an IC50 of less than 100 nM.
